{"source": "PubChem BioAssay (NCI)", "assay_in_all_cases": "growth of human tumour cells (NCI), 384-well format", "key": {"SF-295 CNS": {"system": "SF-295 CNS"}, "NCI-H23 lung": {"system": "NCI-H23 lung"}, "MOLT-4 leukemia": {"system": "MOLT-4 leukemia"}, "NCI/ADR-RES ovarian": {"system": "NCI/ADR-RES ovarian"}, "HL-60(TB) leukemia": {"system": "HL-60(TB) leukemia"}, "MCF7 breast": {"system": "MCF7 breast"}, "A498 renal": {"system": "A498 renal"}, "HCT-15 colon": {"system": "HCT-15 colon"}, "ACHN renal": {"system": "ACHN renal"}, "TK-10 renal": {"system": "TK-10 renal"}, "MDA-MB-468 breast": {"system": "MDA-MB-468 breast"}, "786-0 renal": {"system": "786-0 renal"}, "UO-31 renal": {"system": "UO-31 renal"}, "RPMI-8226 leukemia": {"system": "RPMI-8226 leukemia"}, "SR leukemia": {"system": "SR leukemia"}, "SK-MEL-2 melanoma": {"system": "SK-MEL-2 melanoma"}, "UACC-62 melanoma": {"system": "UACC-62 melanoma"}}, "note": "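Here, GI50 denotes the concentration required for 50% inhibition of growth. The concentration for full growth arrest is given as TGI.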", "data": [{"smiles": "Cc1c(-c2c(-c3ccc(F)o3)sc3ncnc(O[C@H](Cc4ccccc4OCc4ccnn4CC(F)(F)F)C(=O)O)c23)ccc(OCCN2CCN(C)CC2)c1Cl", "values": [{"measurement": "GI50", "setting": "SF-295 CNS", "result": 1.66, "unit": "µM"}, {"measurement": "TGI", "setting": "SF-295 CNS", "result": 3.06, "unit": "µM"}, {"measurement": "GI50", "setting": "NCI-H23 lung", "result": 0.0113, "unit": "µM"}, {"measurement": "TGI", "setting": "NCI-H23 lung", "result": 0.0318, "unit": "µM"}, {"measurement": "GI50", "setting": "MOLT-4 leukemia", "result": "< 0.01", "unit": "µM"}, {"measurement": "TGI", "setting": "MOLT-4 leukemia", "result": "< 0.01", "unit": "µM"}, {"measurement": "GI50", "setting": "NCI/ADR-RES ovarian", "result": 27.4, "unit": "µM"}, {"measurement": "TGI", "setting": "NCI/ADR-RES ovarian", "result": 95.7, "unit": "µM"}, {"measurement": "GI50", "setting": "HL-60(TB) leukemia", "result": "< 0.01", "unit": "µM"}, {"measurement": "TGI", "setting": "HL-60(TB) leukemia", "result": "< 0.01", "unit": "µM"}, {"measurement": "GI50", "setting": "MCF7 breast", "result": "< 0.01", "unit": "µM"}, {"measurement": "TGI", "setting": "MCF7 breast", "result": 1.18, "unit": "µM"}, {"measurement": "GI50", "setting": "A498 renal", "result": 3.34, "unit": "µM"}, {"measurement": "TGI", "setting": "A498 renal", "result": 9.93, "unit": "µM"}, {"measurement": "GI50", "setting": "HCT-15 colon", "result": 10.4, "unit": "µM"}, {"measurement": "TGI", "setting": "HCT-15 colon", "result": 22.2, "unit": "µM"}, {"measurement": "GI50", "setting": "ACHN renal", "result": 6.94, "unit": "µM"}, {"measurement": "TGI", "setting": "ACHN renal", "result": 18.8, "unit": "µM"}, {"measurement": "GI50", "setting": "TK-10 renal", "result": 3.27, "unit": "µM"}, {"measurement": "TGI", "setting": "TK-10 renal", "result": 8.77, "unit": "µM"}, {"measurement": "GI50", "setting": "MDA-MB-468 breast", "result": "< 0.01", "unit": "µM"}, {"measurement": "TGI", "setting": "MDA-MB-468 breast", "result": "< 0.01", "unit": "µM"}, {"measurement": "GI50", "setting": "786-0 renal", "result": 2.11, "unit": "µM"}, {"measurement": "TGI", "setting": "786-0 renal", "result": 4.5, "unit": "µM"}, {"measurement": "GI50", "setting": "UO-31 renal", "result": 15.6, "unit": "µM"}, {"measurement": "TGI", "setting": "UO-31 renal", "result": 29.1, "unit": "µM"}, {"measurement": "GI50", "setting": "RPMI-8226 leukemia", "result": "< 0.01", "unit": "µM"}, {"measurement": "TGI", "setting": "RPMI-8226 leukemia", "result": "< 0.01", "unit": "µM"}, {"measurement": "GI50", "setting": "SR leukemia", "result": "< 0.01", "unit": "µM"}, {"measurement": "TGI", "setting": "SR leukemia", "result": "< 0.01", "unit": "µM"}, {"measurement": "GI50", "setting": "SK-MEL-2 melanoma", "result": "< 0.01", "unit": "µM"}, {"measurement": "TGI", "setting": "SK-MEL-2 melanoma", "result": "< 0.01", "unit": "µM"}, {"measurement": "GI50", "setting": "UACC-62 melanoma", "result": "< 0.01", "unit": "µM"}, {"measurement": "TGI", "setting": "UACC-62 melanoma", "result": 0.0102, "unit": "µM"}]}]}
